Measured values from article PMC4520450, “Procyanidins Negatively Affect the Activity of the Phosphatases of Regenerating Liver” (PLoS ONE, 2015).

Experiments:
[1] = test system: PRL-3 overexpressing HEK293 cells; assay: Wound healing assay; type: cell-based; conditions: for cell migration, wound healing: 7 h, PRL-3 overexpressing cells
Procedure: (§1) To study if procyanidin C2 is able to inhibit PRL-1 and PRL-3 in cells, HEK293 cells were treated in a wound-healing assay (see the experimental procedures). […] As a control the empty vector cell line was again utilized. […] The migration speed was for all cell lines similar when treated with 50 μM of 9. To further corroborate these findings we performed additionally a transwell assay as an alternative way to study cell migration.
(§2) Fig 6 Wound healing abilities of PRL-1 or PRL-3 overexpressing or empty vector control HEK293 cell lines were analyzed in the presence of compound 9 or medium only. Cells were seeded at a concentration of 800,000 cells per insert and procyanidin C2 (9) was added at a concentration of 25 and 50 μM. A) Pictures of the wound gaps were taken at 0 h and 7 h for both conditions (with and without treatment). B) Quantification of the wound healing experiment. Speed of migration is shown for combined data from different replicates, as mean ± SD (n = 38–88). Two-sided t-tests with Welsh correction were performed for p < 0.05. ns = not significant;***: < 0.001; **: < 0.01; *: < 0.05. C) Effect of polyphenolic compounds in a transwell assay on the cell migration of HEK293 empty vector and PRL-3 overexpressing cell lines. Cells were seeded at a concentration of 100,000 cells per insert and procyanidin C2 (9) was added at a final concentration of 25 and 50 μM. Migration was allowed for 16 h before harvesting and staining with calcein AM for fluorescent readout. Mean ± SD (n = 60–72) is shown for combined data from different replicates. Two-sided t-tests with Welsh correction were performed for p < 0.05. ns = not significant. D) Quantification of wound healing experiment including blocking PRL-1 and PRL-3 with analog 3. Speed of migration is shown for combined data from different replicates, as mean ± SD (n = 63–82). Two-sided t-tests with Welsh correction were performed for p < 0.05.
(§3) Wound healing experiments were carried out with μ-dish 35mm culture inserts. 8 × 10^5 cells/mL of the respective HEK293 stable cell lines were seeded into each of the two insert wells and allowed to settle for 40 h in the presence of tetracycline. Then the inserts were gently removed and growth medium supplemented with 7.5% FBS and 0.1% tetracycline was added as well as procyanidin C2 (9) or procyanidin B3 (8) at a final concentration of 25, 50 or 75 μM. For the experiment including blocking of PRLs with analog 3, the latter one was added at a final concentration of 35 μM, followed by addition of procyanidin C2 (9) at either 25 or 50 μM final concentration. Negative controls contained growth medium with FBS only. Pictures of the wound gap were taken at 0 h and 7 h time points. A Zeiss Cellobserver HS microscope was used with 10 × magnitude. For data analysis, in each experiment, the distances between both cell fronts at time point 0 h and 7 h were measured by taking 20 different measuring points. Then all the measurements from different replicates (4) for each experiment were combined and analyzed by t-test using Welsh correction in GraphPad Prism. Data are shown with 99% confidence intervals.

[2] = test system: HEK293 empty vector control cell line; assay: Wound healing assay; type: cell-based; conditions: 7 h, empty vector cells
Procedure: as §1, §2, §3

PRL-1 = biological target: T1, PRL-1 (Homo sapiens, UniProt Q93096); assay: DiFMUP phosphatase activity assay for PRLs; type: biochemical; conditions: for IC50: 50 nM PRL-1, 30 min preincubation, 25°C, 24 μM DiFMUP, mean ± SEM (n = 3–5), read-out: IC50 (Ki) PRL-1
T1 construct: His-TEV (cleaved yes); made in house
T1 sequence (Q93096 1-173): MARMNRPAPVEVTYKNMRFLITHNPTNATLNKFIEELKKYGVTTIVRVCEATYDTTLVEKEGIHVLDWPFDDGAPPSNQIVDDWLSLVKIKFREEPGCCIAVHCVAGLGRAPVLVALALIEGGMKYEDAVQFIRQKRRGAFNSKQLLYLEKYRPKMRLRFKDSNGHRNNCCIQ
Procedure: (§4) Fig 2 Effect of polyphenolic compounds 8 (A), 9 (B), 10 (C) and 11 (D) on the phosphatase activity of PRL-1, PRL-2, PRL-3, PP1, and PP2A. Proteins were incubated for 30 min with 0–1000 μM of the corresponding procyandin 8–11. Phosphatase activity was measured in the presence of DiFMUP at 25°C using the concentration corresponding to the KM of each protein. The KM for PRLs was determined separately (PRL-3 = 21 μM, PRL-2 and PRL-1 = 24 μM). The KM for PP1 (91 μM) and for PP2A (100 μM) was taken from the literature. Protein concentrations are 50 nM for all PRLs and 2 mU for PP1 and 0.05 U for PP2A (see the Experimental Procedures). Phosphatase activity in the absence of inhibitors was set as 100%. Data represent means ± standard errors of the mean (n = 3–5).
(§5) DiFMUP assay for PRLs: In a final reaction volume of 100 μL the PRLs (50 nM final concentration) were incubated with decreasing concentrations of the inhibitory polyphenols for 30 minutes at 25°C. The buffer conditions were 108 mM TrisCl (pH 7.5), Triton 0.05% (v/v), DTT 27.0 mM, NaCl 811 mM. After the incubation time 20 μL DiFMUP (6,8-Difluoro-4-methylumbelliferyl phosphate) was added to reach a final concentration of 21 μM for PRL-3 and 24 μM for PRL-1 and PRL-2. On a Tecan safire2 (Tecan, Salzburg, Austria) plate reader dephosphorylation of the substrate to its fluorescent product was monitored by following the emission at 358 nm with excitation at 452 nm for 20 minutes. All measurements were done in triplicates, and the experiments were repeated at least three times. The slopes of the initial phases were obtained by linear regression of the data points. The normalized reaction rates were plotted versus the log of the inhibitor concentrations and the IC50 values were obtained by fitting the curves using the one site competition model of GraphPad Prism (GraphPad Software, Version 5). KM values were determined by measuring reaction kinetics of substrate dilution series. Initial velocities were plotted against DiFMUP concentration and the data was analyzed by Michaelis-Menten kinetics curve fitting of GraphPad Prism. A final DMSO content of 0.4% was maintained for the monomeric catechins. Due to the high water solubility of the procyanidins DMSO was not required and measurements were done in assay buffer only.

PRL-2 = biological target: T2, PRL-2 (Homo sapiens, UniProt Q12974); assay: DiFMUP phosphatase activity assay for PRLs; type: biochemical; conditions: 50 nM PRL-2, 30 min preincubation, 25°C, 24 μM DiFMUP; mean ± SEM (n = 3–5); read-out: IC50 (Ki) PRL-2
T2 construct: His-TEV (cleaved yes); made in house
T2 sequence (Q12974 1-167): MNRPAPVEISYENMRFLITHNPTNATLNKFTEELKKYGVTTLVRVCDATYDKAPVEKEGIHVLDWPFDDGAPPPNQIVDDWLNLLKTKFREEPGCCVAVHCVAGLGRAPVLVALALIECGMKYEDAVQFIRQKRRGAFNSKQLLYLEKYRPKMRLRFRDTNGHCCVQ
Procedure: as §4, §5

SMILES | cell migration, wound healing ([1]; 50 μM) | cell migration, wound healing ([1]; 75 μM) | cell migration, wound healing ([2]; 50 μM) | cell migration, wound healing ([2]; 75 μM) | IC50 (PRL-1) | fold higher activity toward PRL-1 compared to PRL-3 (PRL-1; in vitro, from IC50 values) | IC50 (PRL-2) | migration, wound healing, PRLs blocked with analog 3 ([1]; 25 μM of 9 plus 35 μM analog 3, PRL-3 overexpressing cells) | cell migration, wound healing ([1]; 25 μM) | migration speed, wound healing, PRLs blocked with analog 3 ([1]; 50 μM of 9 plus 35 μM analog 3, PRL-3 overexpressing cells) | cell migration, wound healing ([2]; 25 μM)
Oc1cc(O)c2c(c1)O[C@H](c1ccc(O)c(O)c1)[C@@H](O)[C@@H]2c1c(O)cc(O)c2c1O[C@H](c1ccc(O)c(O)c1)[C@@H](O)C2 [Procyanidin B3 (8), Procyanidin B3] | did not significantly increase migration behavior | did not significantly increase the migration speed | did not significantly increase migration behavior | did not significantly increase the migration speed | 3.3 ± 1.2 µM | 38 fold | 103 ± 1.1 µM | – | – | – | –
Oc1cc(O)c2c(c1)O[C@H](c1ccc(O)c(O)c1)[C@@H](O)[C@@H]2c1c(O)cc(O)c2c1O[C@H](c1ccc(O)c(O)c1)[C@@H](O)[C@@H]2c1c(O)cc(O)c2c1O[C@H](c1ccc(O)c(O)c1)[C@@H](O)C2 [Procyanidin C2 (9), Procyanidin C2] | significant decrease in cell migration | – | significantly increased the number of migrating cells | – | 1.8 ± 1.1 µM | – | 15.2 ± 1.4 µM | the same as for the empty vector cell line | did not decrease significantly | exactly the same as for the empty vector cell line | slightly increased migration behavior
